Measured values: publication PMC3408500, “Development of a High-Throughput Assay for Identifying Inhibitors of TBK1 and IKKε” (PLoS ONE, 2012)
Several values for one entry are separate records, joined by “and”; a condition that tells them apart may be missing. Equal entries are not always repeated. Structures can show the parent of a compound that is named as a salt. Where two headings read alike, the source gives them in different places.

Key:
[1] = biological target: T1, IKKα (Homo sapiens, UniProt O15111); experiment: MCE kinase assay, phosphorylation of FL-1 peptide by IKKα (secondary screen); format: biochemical; conditions: for inhibition at 10 µM: read-out: percent inhibition of IKKα
T1 construct: purchased Life Technologies (Invitrogen)
T1 sequence (O15111 1-745): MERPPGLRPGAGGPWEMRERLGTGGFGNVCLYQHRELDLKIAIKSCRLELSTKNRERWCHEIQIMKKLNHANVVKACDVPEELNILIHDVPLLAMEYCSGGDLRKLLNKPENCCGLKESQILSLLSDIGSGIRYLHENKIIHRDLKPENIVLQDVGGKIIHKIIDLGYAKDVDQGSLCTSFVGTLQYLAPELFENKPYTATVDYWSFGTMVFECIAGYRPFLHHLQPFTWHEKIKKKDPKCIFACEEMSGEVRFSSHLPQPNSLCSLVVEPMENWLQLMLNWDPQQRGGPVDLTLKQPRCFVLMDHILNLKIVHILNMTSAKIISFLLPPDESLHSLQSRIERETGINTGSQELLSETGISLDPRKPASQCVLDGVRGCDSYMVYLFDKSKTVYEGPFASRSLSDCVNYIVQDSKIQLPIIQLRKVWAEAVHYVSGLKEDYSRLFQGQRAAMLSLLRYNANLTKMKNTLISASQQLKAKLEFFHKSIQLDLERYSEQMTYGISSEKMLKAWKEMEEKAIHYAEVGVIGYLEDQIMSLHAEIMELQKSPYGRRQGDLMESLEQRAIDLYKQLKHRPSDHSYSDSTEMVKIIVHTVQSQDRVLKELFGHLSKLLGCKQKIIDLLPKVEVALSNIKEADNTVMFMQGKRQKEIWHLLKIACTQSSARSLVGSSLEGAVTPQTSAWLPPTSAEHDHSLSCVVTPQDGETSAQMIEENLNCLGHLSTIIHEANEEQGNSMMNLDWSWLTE
Method: As IKKβ and IKKα are closely related to TBK1 and IKKε, it was important to determine the specificity of any candidate inhibitors. A secondary screen was therefore performed to evaluate the ability of the top-scoring TBK1 and IKKε inhibitors to inhibit the canonical IKKs. […] Enzyme concentrations were titrated and fixed to 11.5 µM for IKKα and 1.1 µM for IKKβ and the screen was performed as described above for TBK1 and IKKε. […]
Kinase buffer contained 50 mM Tris (pH 7.5), 12 mM MgCl2, 1 mM β-glycerophosphate, 100 µM ATP, and 10 µCi γ-^32P-ATP/reaction. Reactions were incubated at 30°C for 1h. Recombinant GST-TBK1 and GST-TBK1 K38A used in the positional scanning peptide library assay were generated as described above and the assay was performed as described previously, [28]. […]

[2] = biological target: T2, TBK1 (Homo sapiens, UniProt Q9UHD2); experiment: MCE (microfluidic capillary electrophoresis) kinase assay, phosphorylation of 5-FAM-TBK1-Tide by TBK1; format: biochemical; conditions: for inhibition at 10 µM: read-out: percent inhibition of TBK1
T2 construct: purchased Life Technologies (Invitrogen)
T2 sequence (Q9UHD2 1-729): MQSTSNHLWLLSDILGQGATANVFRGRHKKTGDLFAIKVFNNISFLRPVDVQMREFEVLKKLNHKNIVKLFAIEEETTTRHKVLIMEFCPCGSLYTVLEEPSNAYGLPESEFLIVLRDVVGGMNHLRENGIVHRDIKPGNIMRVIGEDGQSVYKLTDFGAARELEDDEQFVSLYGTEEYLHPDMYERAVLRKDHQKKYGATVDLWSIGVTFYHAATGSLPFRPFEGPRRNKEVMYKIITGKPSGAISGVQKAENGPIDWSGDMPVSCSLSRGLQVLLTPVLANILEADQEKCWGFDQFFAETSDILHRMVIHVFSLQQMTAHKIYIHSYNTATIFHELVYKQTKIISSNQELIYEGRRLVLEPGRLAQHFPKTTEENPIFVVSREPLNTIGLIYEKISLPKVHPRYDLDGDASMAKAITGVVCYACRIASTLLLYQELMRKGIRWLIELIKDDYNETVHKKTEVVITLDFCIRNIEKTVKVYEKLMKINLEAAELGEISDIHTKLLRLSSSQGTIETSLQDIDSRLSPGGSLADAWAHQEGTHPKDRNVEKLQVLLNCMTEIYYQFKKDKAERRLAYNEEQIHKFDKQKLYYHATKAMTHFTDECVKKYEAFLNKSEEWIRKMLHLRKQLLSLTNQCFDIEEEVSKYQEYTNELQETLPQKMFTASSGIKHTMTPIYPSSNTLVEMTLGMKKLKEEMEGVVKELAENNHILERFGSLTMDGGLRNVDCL
Method: (§1) MCE operates on the principle that small fluorescently-labeled peptide substrates from ∼100 nanoliter sized aliquots of reaction samples are separable in a capillary channel etched in a quartz microfluidic chip ratio when a current is applied, [30]. […] TBK1-Tide was synthesized with an N-terminal 5– Carboxyfluorescein (5-FAM) dye for use as a substrate. […] The enzyme concentrations were then titrated and fixed to 120 nM for TBK1 and 81 nM for IKKε.
(§2) Compounds were screened at a final concentration of 10 µM in 0.1% DMSO. Two libraries of compounds were tested. […] This library was tested in duplicate to establish the reproducibility of the screen (Figure S2). A second kinase-focused library consisting of 4,727 unique and “rule of five” compliant compounds was also tested (Figures 5A and B). […]

[3] = biological target: T3, IKKε (Homo sapiens, UniProt Q14164); experiment: MCE kinase assay, phosphorylation of 5-FAM-TBK1-Tide by IKKε; format: biochemical; conditions: for inhibition at 10 µM: read-out: percent inhibition of IKKε
T3 construct: purchased Life Technologies (Invitrogen)
T3 sequence (Q14164 1-716): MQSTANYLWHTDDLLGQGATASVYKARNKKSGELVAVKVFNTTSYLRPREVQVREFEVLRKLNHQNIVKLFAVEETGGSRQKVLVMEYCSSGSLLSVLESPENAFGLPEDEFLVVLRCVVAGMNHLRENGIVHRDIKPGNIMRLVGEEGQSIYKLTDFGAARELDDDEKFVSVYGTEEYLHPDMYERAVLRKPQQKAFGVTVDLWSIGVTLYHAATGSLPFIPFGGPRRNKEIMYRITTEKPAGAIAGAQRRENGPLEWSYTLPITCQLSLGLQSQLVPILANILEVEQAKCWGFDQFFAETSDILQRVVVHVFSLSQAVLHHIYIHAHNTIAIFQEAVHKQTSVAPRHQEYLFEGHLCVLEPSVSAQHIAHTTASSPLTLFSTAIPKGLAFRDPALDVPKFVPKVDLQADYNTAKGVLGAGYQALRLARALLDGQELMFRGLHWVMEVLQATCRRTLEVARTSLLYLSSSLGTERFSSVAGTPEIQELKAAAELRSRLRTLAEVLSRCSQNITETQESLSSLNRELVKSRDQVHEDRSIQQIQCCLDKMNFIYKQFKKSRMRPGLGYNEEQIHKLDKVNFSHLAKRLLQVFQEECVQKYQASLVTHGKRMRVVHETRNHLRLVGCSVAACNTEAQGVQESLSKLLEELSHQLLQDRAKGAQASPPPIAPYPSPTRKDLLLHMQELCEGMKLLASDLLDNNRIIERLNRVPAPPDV
Method: as §1, §2

[4] = biological target: IKKβ (Homo sapiens, UniProt O14920); conditions: read-out: ATP Km of IKKβ for TBK1-Tide; room temperature
Method: As IKKβ and IKKα are closely related to TBK1 and IKKε, it was important to determine the specificity of any candidate inhibitors. A secondary screen was therefore performed to evaluate the ability of the top-scoring TBK1 and IKKε inhibitors to inhibit the canonical IKKs. […] Enzyme concentrations were titrated and fixed to 11.5 µM for IKKα and 1.1 µM for IKKβ and the screen was performed as described above for TBK1 and IKKε.
5-FAM-labeled TBK1-Tide for library screening was generated in the High-Throughput Peptide Synthesis and Arrays Core Facility at University of North Carolina at Chapel Hill.
Kinase buffer contained 50 mM Tris (pH 7.5), 12 mM MgCl2, 1 mM β-glycerophosphate, 100 µM ATP, and 10 µCi γ-^32P-ATP/reaction. Reactions were incubated at 30°C for 1h. Recombinant GST-TBK1 and GST-TBK1 K38A used in the positional scanning peptide library assay were generated as described above and the assay was performed as described previously, [28]. […] IKKε reactions were incubated for 2 hours at room temperature and TBK1, IKKα, and IKKβ reactions were incubated for 6 hours at room temperature.

[5] = test system: ERRα; set-up: method as in LOPAC library description; conditions: transient transfection assays using GAL4-ERR LBD or full-length ERR with the mSHP promoter; ref LOPAC library description; cited from earlier work
[6] = compound at 10 µM, after 2 hours (at completion of the assay), LOPAC set

IKKβ, sequence (O14920 whole entry): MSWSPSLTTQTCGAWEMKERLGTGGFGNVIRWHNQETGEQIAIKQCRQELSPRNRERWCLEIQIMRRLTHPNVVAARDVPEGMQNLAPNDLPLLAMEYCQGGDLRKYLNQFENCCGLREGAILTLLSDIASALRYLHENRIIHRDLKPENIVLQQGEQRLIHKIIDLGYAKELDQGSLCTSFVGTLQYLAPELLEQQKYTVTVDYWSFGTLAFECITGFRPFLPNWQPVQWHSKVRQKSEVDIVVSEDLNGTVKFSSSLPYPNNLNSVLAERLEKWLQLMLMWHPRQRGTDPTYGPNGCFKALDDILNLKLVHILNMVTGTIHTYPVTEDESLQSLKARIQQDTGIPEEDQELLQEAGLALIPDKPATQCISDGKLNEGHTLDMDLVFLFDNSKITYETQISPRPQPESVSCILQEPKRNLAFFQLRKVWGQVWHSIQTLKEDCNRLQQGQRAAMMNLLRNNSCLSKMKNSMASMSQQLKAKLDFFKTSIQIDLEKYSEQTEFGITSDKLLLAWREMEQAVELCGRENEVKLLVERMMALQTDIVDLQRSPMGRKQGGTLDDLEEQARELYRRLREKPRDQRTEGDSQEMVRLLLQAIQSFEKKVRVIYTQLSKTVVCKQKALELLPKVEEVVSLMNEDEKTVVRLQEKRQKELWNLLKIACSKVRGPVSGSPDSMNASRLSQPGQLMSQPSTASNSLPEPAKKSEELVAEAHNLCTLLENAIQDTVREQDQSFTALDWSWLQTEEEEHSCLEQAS

SMILES	percent inhibition of IKKα [1, 6]	percent inhibition of TBK1 [2, 6]	percent inhibition of IKKε [3, 6]	inhibition at 10 µM [1, 6]	inhibition at 10 µM [2, 6]	inhibition at 10 µM [3, 6]	further results
CN(C)CCC(c1ccc(Cl)cc1)c1ccccn1.O=C(O)/C=C\C(=O)O (racemic) [UNC10100321, (±)-Chlorpheniramine maleate salt]	-3%	84.5%	48%				
NC(Cc1cc(O)c(O)cc1O)C(=O)O (racemic) [UNC10100691, 6-Hydroxy-DL-DOPA]	29%	77.5%	61%				
Nc1ncnc2c1ncn2[C@@H]1O[C@H](COP(=O)(O)OP(=O)(O)OP(=O)(O)O)[C@@H](O)[C@H]1O [ATP]							Km ([1]; room temperature, read-out: ATP Km of IKKα for FL-1): 134 µM; Km ([2]; TBK1-Tide fixed at 1 µM, room temperature, read-out: Km for ATP, TBK1): 7.5 µM and 7.54 µM; Km [4]: 2 µM; Km ([3]; TBK1-Tide fixed at 1 µM, room temperature, read-out: Km for ATP, IKKε): 4.7 µM and 4.67 µM
Brc1ccc([C@H]2CN3CCSC3=N2)cc1.O=C(O)C(=O)O [UNC10100081, (−)-p-Bromolevamisole oxalate]	-2%	70%	26.5%				
CC(=O)NCCc1c[nH]c2ccccc12 [UNC10100161, N-Acetyltryptamine]				-1.5%	74.5%	24%	
O=C1Nc2ccccc2/C1=C1/Nc2ccccc2/C1=N\O [UNC10100206, Indirubin-3′-oxime]	2.5%	58%	68%				
CC(=O)OCC1=C(C(=O)O)N2C(=O)[C@@H](NC(=O)CSc3ccncc3)[C@H]2SC1 [UNC10100339, Cephapirin sodium salt]				-0.5%	34%	60%	
Oc1c2ccccc2c2c3c(cccc13)N=N2 [UNC10100533, SP600125]				10%	76.5%	53.5%	
O=c1cc(-c2ccccc2F)[nH]c2cc3c(cc12)OCO3 [UNC10100799, CHM-1 hydrate]	3%	67.5%	12.5%				
COc1ccc2c(c1)/C(=C/c1cnc[nH]1)C(=O)N2 [UNC10100994, SU9516]				21.5%	85.5%	66%	
CN(C)CCC(c1ccccc1)c1ccccn1.O=C(O)/C=C\C(=O)O (centres unmarked) [UNC10101037, Pheniramine maleate salt]	-0.5%	80.5%	20%				
Nc1c(S(=O)(=O)O)cc(Nc2ccc(Nc3nc(Cl)nc(Nc4cccc(S(=O)(=O)O)c4)n3)c(S(=O)(=O)O)c2)c2c1C(=O)c1ccccc1C2=O [UNC10101110, Reactive Blue 2]							inhibition at 10 µM [1]: 55.5%; inhibition at 10 µM [2]: 74%; inhibition at 10 µM [3]: 67%
COc1cc(/C=C(\C#N)C(=O)Nc2nnc(C(F)(F)F)s2)ccc1OCc1ccc(C(F)(F)F)cc1C(F)(F)F [UNC10101318, XCT790]	28%	71.5%	10.5%				IC50 [5]: […]
